The IC50 is the point on the concentration scale where inhibition reaches its midpoint. Low values mean higher potency, high ones lower potency.

T1 sequence (P35968 806-1356): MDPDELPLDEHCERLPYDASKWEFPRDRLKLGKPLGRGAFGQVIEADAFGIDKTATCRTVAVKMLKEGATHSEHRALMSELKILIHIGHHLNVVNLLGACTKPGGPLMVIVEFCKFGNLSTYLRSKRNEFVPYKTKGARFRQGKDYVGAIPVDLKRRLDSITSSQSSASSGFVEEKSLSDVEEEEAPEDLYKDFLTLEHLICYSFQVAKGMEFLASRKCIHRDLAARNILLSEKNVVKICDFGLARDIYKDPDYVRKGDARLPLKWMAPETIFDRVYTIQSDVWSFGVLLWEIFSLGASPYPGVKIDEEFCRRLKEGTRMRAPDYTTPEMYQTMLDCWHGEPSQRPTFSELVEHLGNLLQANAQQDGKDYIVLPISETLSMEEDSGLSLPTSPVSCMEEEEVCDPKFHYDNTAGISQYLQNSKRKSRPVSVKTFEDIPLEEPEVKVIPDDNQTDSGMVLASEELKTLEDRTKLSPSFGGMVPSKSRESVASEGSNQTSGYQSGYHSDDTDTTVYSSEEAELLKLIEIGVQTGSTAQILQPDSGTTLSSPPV

The test addresses T1, VEGFR/KDR (Homo sapiens, UniProt P35968).
T1 construct: made in house; host or cells: Sf9 cells (Spodoptera frugiperda), baculovirus
Nature of the test: VEGFR/KDR kinase inhibition, DELFIA assay. The class given is biochemical. The note with it: ATP 0.6 uM (2x Km), enzyme 5 nM. In a few lines: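 Enzyme (5 nM) pre-incubated 4 min on ice with inhibitor and Mg-ATP (0.6 uM, 2× Km), then reacted 10-30 min at 30° C on immobilized poly(Glu4,Tyr). EDTA-quenched phosphotyrosine detected with Europium-labeled antibody by time-resolved fluorescence; IC50 from concentration series.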
`CN1CCCN(Cc2ccc(-c3cc4nccc(Oc5ccc(NC(=O)NC6CC6)cc5F)c4s3)nc2)CC1` [Compound 54-B, 1-cyclopropyl-3-(3-fluoro-4-(2-(5-((4-methyl-1,4-diazepan-1-yl)methyl)pyridin-2-yl)thieno[3,2-b]pyridin-7-yloxy)phenyl)urea]: the IC50 was less than 50 nM.

In the case of `O=C(Nc1ccc(Oc2ccnc3cc(-c4ccc(CN5CCNC5=O)cn4)sc23)c(F)c1)NC1CC1` [Compound 143, 1-cyclopropyl-3-(3-fluoro-4-(2-(5-((2-oxoimidazolidin-1-yl)methyl)pyridin-2-yl)thieno[3,2-b]pyridin-7-yloxy)phenyl)urea], the IC50 is less than 50 nM.

Compound `O=C(O)CNC(=O)NC1CCN(Cc2ccc(-c3cc4nccc(Oc5ccc(NC(=O)NC6CC6)cc5F)c4s3)nc2)CC1` [Compound 426, 2-(3-(1-((6-(7-(4-(3-Cyclopropylureido)-2-fluorophenoxy)thieno[3,2-b]pyridin-2-yl)pyridin-3-yl)methyl)piperidin-4-yl)ureido)acetic acid] showed an IC50 of less than 50 nM.

In the case of `CCNC(=O)NC1CCN(Cc2ccc(-c3cc4nccc(Oc5ccc(NC(=O)NC6CC6)cc5F)c4s3)nc2)CC1` [Compound 353], the IC50 was less than 50 nM.

On to `COCCOCC(=O)N(CCOC)Cc1ccc(-c2cc3nccc(Oc4ccc(NC(=O)NC5CC5)cc4F)c3s2)cc1` [Compound 115, N-(4-(7-(4-(3-cyclopropylureido)-2-fluorophenoxy)thieno[3,2-b]pyridin-2-yl)benzyl)-2-(2-methoxyethoxy)-N-(2-methoxyethyl)acetamide], for which the IC50 was less than 50 nM.

The compound `NC1CCN(Cc2ccc(-c3cc4nccc(Oc5ccc(NC(=O)NC6CC6)cc5F)c4s3)nc2)CC1` [Compound 343, 1-(4-(2-(5-((4-Aminopiperidin-1-yl)methyl)pyridin-2-yl)thieno[3,2-b]pyridin-7-yloxy)-3-fluorophenyl)-3-cyclopropylurea] showed an IC50 of less than 50 nM.

In turn, `O=C(Nc1ccc(Oc2ccnc3cc(-c4ccc(C(=O)N5CCN(CCN6CCOCC6)CC5)cn4)sc23)c(F)c1)NC1CC1` [Compound 231, 1-cyclopropyl-3-(3-fluoro-4-(2-(5-(4-(2-morpholinoethyl)piperazine-1-carbonyl)pyridin-2-yl)thieno[3,2-b]pyridin-7-yloxy)phenyl)urea] yielded an IC50 of less than 50 nM.

Take `COC(=O)CCn1cc(-c2cc3nccc(Oc4ccc(NC(=O)NC5CC5)cc4F)c3s2)nn1` [Compound 369]: the IC50 was less than 50 nM.

With `O=C1CN(Cc2ccc(-c3cc4nccc(Oc5ccc(NC(=O)NC6CC6)cc5F)c4s3)nc2)CCN1` [Compound 67, l-cyclopropyl-3-(3-fluoro-4-(2-(5-((3-oxopiperazin-1-yl)methyl)pyridin-2-yl)thieno[3,2-b]-pyridin-7-yloxy)phenyl)urea], the IC50 is less than 50 nM.

For `CN1CCN(C(=O)c2ccc(-c3cc4nccc(Oc5ccc(NC(=O)NC6CC6)cc5F)c4s3)nc2)CC1` [Compound 228, 1-cyclopropyl-3-(3-fluoro-4-(2-(5-(4-methylpiperazine-1-carbonyl)pyridin-2-yl)thieno[3,2-b]pyridin-7-yloxy)phenyl)urea], the IC50 is less than 50 nM.

Compound `O=C(Nc1ccc(Oc2ccnc3cc(-c4cn(CC(=O)N5CCNCC5)nn4)sc23)c(F)c1)NC1CC1` [Compound 389, 1-Cyclopropyl-3-(3-fluoro-4-(2-(1-(2-oxo-2-(piperazin-1-yl)ethyl)-1H-1,2,3-triazol-4-yl)thieno[3,2-b]pyridin-7-yloxy)phenyl)urea] gave an IC50 of less than 50 nM.

`COC(=O)CCN1CCN(C(=O)c2ccc(-c3cc4nccc(Oc5ccc(NC(=O)NC6CC6)cc5F)c4s3)nc2)CC1` [Compound 580] had an IC50 of less than 50 nM.

In turn, `CCOC(=O)CCN1CCN(C(=O)c2ccc(-c3cc4nccc(Oc5ccc(NC(=O)NC6CC6)cc5F)c4s3)nc2)CC1` [Compound 236, ethyl 3-(4-(6-(7-(4-(3-cyclopropylureido)-2-fluorophenoxy)thieno-[3,2-b]pyridin-2-yl)nicotinoyl)piperazin-1-yl)propanoate] returned a half-maximal inhibitory concentration (IC50) of less than 50 nM.

The values above are taken from patent US8906852B2 (MethylGene Inc., priority 2010, dated 2014).
